Reference: patent publication US20020106354A1, “CELLULAR AND ANIMAL MODELS FOR DISEASES ASSOCIATED WITH ALTERED MITOCHONDRIAL FUNCTION” (priority 1998, published 2002)

Columns and labels:
INS-1 cells [1] = assay: Quantification of mitochondrial DNA by slot blotting (COX-I probe) in INS-1 cells treated with nucleoside analogs; type: cell-based, rat; conditions: for depleted for mtDNA / depleted for mitochondrial DNA / effect on mtDNA content / Relative [mtDNA] After Contact w/ Antiviral: seven days; for effect on mtDNA content: varying concentrations
Description: Media were replenished every two days. Cells were harvested at periodic intervals and assayed for insulin secretion and mtDNA content. INS-1 cells, or ρ^[…] cells generated using ddC as described above, were seeded into 12-well plates containing RPMI media supplemented as described above at 0.4×10^6 cells/well and cultured at 37° C., 5% CO2 for 2 days. Cells (0.7×10^6 cells/well) were rinsed with PBS and total cellular DNA was extracted using DNAzol (Molecular Research Center, Inc., Cincinnati, Ohio) according to the manufacturer's instructions. One hundred ng DNA from each cell preparation was slot-blotted onto a Zeta-Probe membrane (Bio-Rad, Hercules, Calif.) and crosslinked at 125 joules using a BioRad GS GeneLinker irradiation/energy source. The membranes were rinsed in hybridization buffer (5× SSC, 0.1% N-laurylsarcosine, 0.02% SDS, 1% blocking solution, Boehringer Mannheim, Indianapolis, Ind.) and hybridized overnight in the same buffer at 42° C. with the [^32P]-labeled rat COX I probe. Following hybridization, membranes were washed twice with 2X SSC/0.1% SDS and twice with 0.1× SSC/0.1% SDS and exposed to X-ray film. Mitochondrial DNA was quantified by densitometric scanning of the resulting autoradiographs. Time Course of Effects of ddC on Mitochondrial DNA Content of INS-1 Cells INS-1 cells were grown in RPMI medium supplemented with 10% fetal calf serum, 2 mM […], 100 U/ml penicillin, 100 μg/ml streptomycin, 10 mM HEPES, 1 mM sodium pyruvate, 50 μg/ml uridine, and 50 μM β-mercaptoethanol, in the presence of 10 μM ddC. After various times in culture, cells were harvested for analysis of mtDNA content. Total cellular DNA was extracted from approximately one million cells using DNAzol (Molecular Research Center, Inc. Cincinnati, Ohio) essentially according to the manufacturer's instructions. One hundred ng total DNA was analyzed by slot-blot on Zeta-Probe membranes (Bio-Rad, Hercules, Calif.). The membranes were hybridized with a [^32P]-labeled probe complementary to the mitochondrial gene encoding COXI. Autoradiograms were prepared, and the relative content of mitochondrial DNA (mtDNA) estimated by the relative densities of the autoradiographic bands.

patients = conditions: cited from earlier work
INS-1 cells [2] = assay: Insulin secretion by mtDNA-depleted INS-1 cells (insulin radioimmunoassay); type: cell-based, rat; conditions: 10 μM for 40 days
Description: INS-1 cells, or ρ^[…] cells generated using ddC as described above, were seeded into 12-well plates containing RPMI media supplemented as described at 0.5×10^6 cells/well and cultured at 37° C., 5% CO2 for 2 days. Cells (0.7×10^6 cells/well were rinsed with glucose-free KRH buffer (134 mM NaCl, 4.7 mM KCl, 1.2 mM KH2PO4, 1.2 mM MgSO4, 1.0 mM CaCl2, 10 mM HEPES, 10 mM NaHCO3, 0.5% BSA), then incubated in the same buffer for 1 hr at 37° C. in a humidified 5% Co2/95% air atmosphere. Fresh KRH buffer containing 0.5 mM isobutylmethyl xanthine and the following secretagogues was added: 5 mM glucose, 10 mM glucose, 20 mM glucose, 5 mM KCl or 20 mM KCl. After an additional 1 hr at 37° C., 5% CO2 the culture supernatants were collected. Insulin concentrations in the supernatants were measured and normalized to cell number using an insulin-specific radioimmunoassay kit (ICN Biochemicals, Irvine, CA) according to the manufacturer's instructions.

INS-1 cells [3] = assay: Oxygen consumption (Clark oxygen electrode) before and after KCN; type: cell-based, rat; conditions: ddC for >50 days (Rho revertants), before and after 1 uM KCN (FIG. 4)
Description: Neurochem. 67:1897-1907, 1996) before and after the addition of 1 uM KCN. KCN inhibits mitochondrial respiration, primarily via its effect on Complex IV activity.

INS-1 cells [4] = assay: Lactate production in ddC-treated INS-1 cells; type: cell-based, rat
Description: Lactate production was measured in ddC-treated and control INS-1 cells at approximately day 40 and day 50 of ddC incubation. Cells were grown in 35 mm dishes. Media were replenished 16 hr before assay with normal culture media containing various amounts of glucose. The media were then collected, and lactate measured using a commercially available kit, in which lactate dehydrogenase is used to produce a fluorescent compound (Sigma, St. Louis, Mo.), essentially according to the manufacturer's instructions.

## Cc1cn([C@H]2C[C@H](N=[N+]=[N-])[C@@H](CO)O2)c(=O)[nH]c1=O [AZT, 3′-azido-3′ deoxythymidine]
INS-1 cells [1]; 5 μM
  depleted for mtDNA: no depletion of mtDNA
INS-1 cells [1]; 10 μM
  depleted for mtDNA: 4%
INS-1 cells [1]; 50 μM
  depleted for mtDNA: 15%
INS-1 cells [1]; 100 μM
  depleted for mitochondrial DNA: no depletion of mtDNA

## O=c1[nH]cnc2c1ncn2[C@H]1CC[C@@H](CO)O1 [ddI, 2′3′-dideoxyinosine]
INS-1 cells [1]; 100 μM
  depleted for mitochondrial DNA: 80%
INS-1 cells [1]; INS-1 cells (FIG. 1)
  effect on mtDNA content: decreased mtDNA content in a dose-dependent fashion

## O=c1[nH]c(=O)n([C@@H]2O[C@H](CO)[C@@H](O)[C@@H]2F)cc1I [FIAU, fialuridine]
INS-1 cells [1]; 10 μM, INS-1 cells
  Relative [mtDNA] After Contact w/ Antiviral: 0.66
INS-1 cells [1]; 100 μM
  depleted for mitochondrial DNA: 61%
INS-1 cells [1]; 100 μM, INS-1 cells
  Relative [mtDNA] After Contact w/ Antiviral: 0.39

## Cc1cn([C@H]2C=C[C@@H](CO)O2)c(=O)[nH]c1=O [d4T, 2′3′-didehydro-3-deoxythymidine]
INS-1 cells [1]; 10 μM, INS-1 cells
  Relative [mtDNA] After Contact w/ Antiviral: 0.98
INS-1 cells [1]; 50 μM, INS-1 cells
  Relative [mtDNA] After Contact w/ Antiviral: 0.56
INS-1 cells [1]; 100 μM
  depleted for mitochondrial DNA: 95%
INS-1 cells [1]; 100 μM, INS-1 cells
  Relative [mtDNA] After Contact w/ Antiviral: 0.05
INS-1 cells [1]; INS-1 cells (FIG. 1)
  effect on mtDNA content: decreased mtDNA content in a dose-dependent fashion
patients
  side-effect of treatment: peripheral neuropathy: axonal peripheral neuropathy

## Nc1ccn([C@H]2CC[C@@H](CO)O2)c(=O)n1 [ddC, 2′3′-dideoxycytidine]
INS-1 cells [1]; 5 μM, INS-1 cells
  Relative [mtDNA] After Contact w/ Antiviral: 0.86
INS-1 cells [1]; 10 μM ddC, day 3
  Relative mtDNA content per million cells: 0.46
INS-1 cells [1]; 10 μM ddC, day 7
  Relative mtDNA content per million cells: 0.41
INS-1 cells [1]; 10 μM ddC, day 14
  Relative mtDNA content per million cells: 0.055
INS-1 cells [1]; 10 μM ddC, day 21
  Relative mtDNA content per million cells: 0.020
INS-1 cells [1]; 10 μM ddC, day 40
  Relative mtDNA content per million cells: 0.0021
INS-1 cells [1]; 10 μM ddC, day 60
  Relative mtDNA content per million cells: 0.550
INS-1 cells [1]; 10 μM ddC, day 80
  Relative mtDNA content per million cells: 0.81
INS-1 cells [1]; 10 μM ddC, day 80, about one million cells
  mtDNA content relative to pretreatment (day 0): about 80%
INS-1 cells [1]; 10 μM, 40 days
  mtDNA detectability: undetectable
INS-1 cells [1]; 10 μM, INS-1 cells
  Relative [mtDNA] After Contact w/ Antiviral: 0.86
INS-1 cells [1]; 25 μM, after 21 days, INS-1 cells
  mtDNA detectability: undetectable
INS-1 cells [1]; 50 μM, INS-1 cells
  Relative [mtDNA] After Contact w/ Antiviral: 0.41
INS-1 cells [1]; 100 μM
  depleted for mitochondrial DNA: 69%
INS-1 cells [1]; 100 μM, INS-1 cells
  Relative [mtDNA] After Contact w/ Antiviral: 0.31
INS-1 cells [1]; Rattus norvegicus, INS1, 168 h, seven days incubation, INS-1 cells (FIG. 1), read-out: IC50 for decrease of mtDNA content
  IC50: ~50 µM
INS-1 cells [1]; INS-1 cells (FIG. 1)
  effect on mtDNA content: decreased mtDNA content in a dose-dependent fashion
INS-1 cells [2]
  KCl-mediated insulin secretion: remained intact
INS-1 cells [2]; 5, 10, 20 mM glucose (FIG. 3)
  glucose stimulated insulin secretion: no glucose stimulated insulin secretion was observed
patients
  side-effect of treatment: peripheral neuropathy: axonal peripheral neuropathy
patients; particularly diabetics
  side-effect of treatment: neuropathy: toxic and painful neuropathy
INS-1 cells [3]
  mitochondrial-mediated respiration (oxygen consumption): mitochondrial-mediated respiration (Complex IV activity) was present
INS-1 cells [4]; 40-day ddC-treated cells, 25 or 50 mM glucose
  lactate produced relative to control (untreated) cells: > 5 times
INS-1 cells [4]; after more than about 50 days ddC
  lactate produced compared with control (untreated) cells: comparable amounts of lactate
